# Assay results as given in PubChem BioAssay (NCI).
#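 Cells were grown in 96-well plates and exposed to each compound for 48 hours at five concentrations; endpoints were interpolated linearly between bracketing concentrations, or set to the highest concentration if not reached. TGI: total growth inhibition.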
# Assays:
# Test in all cases: NCI tumour cell line growth inhibition, 48 h
# SNB-75 CNS = system: SNB-75 CNS
# HT29 colon = system: HT29 colon
# MDA-MB-231 breast = system: MDA-MB-231 breast
# M14 melanoma = system: M14 melanoma
# MDA-MB-435 = system: MDA-MB-435
# COLO 205 colon = system: COLO 205 colon
# SN12C renal = system: SN12C renal
# UACC-62 melanoma = system: UACC-62 melanoma
# HCT-15 colon = system: HCT-15 colon
# DU-145 prostate = system: DU-145 prostate
# PC-3 prostate = system: PC-3 prostate
# SNB-19 CNS = system: SNB-19 CNS
# KM12 colon = system: KM12 colon
# HCT-116 colon = system: HCT-116 colon
# MALME-3M melanoma = system: MALME-3M melanoma
# 786-0 renal = system: 786-0 renal
# RPMI-8226 leukemia = system: RPMI-8226 leukemia
# K-562 leukemia = system: K-562 leukemia
# ACHN renal = system: ACHN renal
# SK-MEL-5 melanoma = system: SK-MEL-5 melanoma
# MDA-N = system: MDA-N
# OVCAR-5 ovarian = system: OVCAR-5 ovarian
# IGROV1 ovarian = system: IGROV1 ovarian
# NCI/ADR-RES ovarian = system: NCI/ADR-RES ovarian
# A498 renal = system: A498 renal
# UACC-257 melanoma = system: UACC-257 melanoma
# OVCAR-8 ovarian = system: OVCAR-8 ovarian
# LOX IMVI melanoma = system: LOX IMVI melanoma
# BT-549 breast = system: BT-549 breast
# A549 NSCLC = system: A549 NSCLC
# UO-31 renal = system: UO-31 renal
# NCI-H460 lung = system: NCI-H460 lung
# MOLT-4 leukemia = system: MOLT-4 leukemia
# SF-268 CNS = system: SF-268 CNS
# SK-MEL-2 melanoma = system: SK-MEL-2 melanoma
# NCI-H226 lung = system: NCI-H226 lung
# SK-MEL-28 melanoma = system: SK-MEL-28 melanoma
# RXF 393 renal = system: RXF 393 renal
# T-47D breast = system: T-47D breast
# U251 CNS = system: U251 CNS
# MCF7 breast = system: MCF7 breast
# CAKI-1 renal = system: CAKI-1 renal
# EKVX NSCLC = system: EKVX NSCLC
# OVCAR-4 ovarian = system: OVCAR-4 ovarian
# HOP-62 NSCLC = system: HOP-62 NSCLC
# SR leukemia = system: SR leukemia
# HS 578T breast = system: HS 578T breast
# HOP-92 NSCLC = system: HOP-92 NSCLC
# NCI-H522 lung = system: NCI-H522 lung
# TK-10 renal = system: TK-10 renal
# HCC-2998 colon = system: HCC-2998 colon
# CCRF-CEM leukemia = system: CCRF-CEM leukemia
# SF-295 CNS = system: SF-295 CNS
# SW-620 colon = system: SW-620 colon
# NCI-H23 lung = system: NCI-H23 lung
# SK-OV-3 ovarian = system: SK-OV-3 ovarian
# OVCAR-3 ovarian = system: OVCAR-3 ovarian
# SF-539 CNS = system: SF-539 CNS
# HL-60(TB) leukemia = system: HL-60(TB) leukemia
structure (smiles),measurement,setting,value
ClC(Cl)(Cl)C(N1CCN(c2ccccc2)CC1)N1CCN(c2ccccc2)CC1,TGI,SNB-75 CNS,> 100 µM
same,TGI,HT29 colon,> 100 µM
same,TGI,MDA-MB-231 breast,> 100 µM
same,TGI,M14 melanoma,> 100 µM
same,TGI,MDA-MB-435,> 100 µM
same,TGI,COLO 205 colon,> 100 µM
same,TGI,SN12C renal,> 100 µM
same,TGI,UACC-62 melanoma,> 100 µM
same,TGI,HCT-15 colon,> 100 µM
same,TGI,DU-145 prostate,> 100 µM
same,TGI,PC-3 prostate,> 100 µM
same,TGI,SNB-19 CNS,> 100 µM
same,TGI,KM12 colon,> 100 µM
same,TGI,HCT-116 colon,> 100 µM
same,TGI,MALME-3M melanoma,> 100 µM
same,TGI,786-0 renal,> 100 µM
same,TGI,RPMI-8226 leukemia,> 100 µM
same,TGI,K-562 leukemia,> 100 µM
same,TGI,ACHN renal,> 100 µM
same,TGI,SK-MEL-5 melanoma,> 100 µM
same,TGI,MDA-N,> 100 µM
same,TGI,OVCAR-5 ovarian,> 100 µM
same,TGI,IGROV1 ovarian,> 100 µM
same,TGI,NCI/ADR-RES ovarian,> 100 µM
same,TGI,A498 renal,> 100 µM
same,TGI,UACC-257 melanoma,> 100 µM
same,TGI,OVCAR-8 ovarian,> 100 µM
same,TGI,LOX IMVI melanoma,> 100 µM
same,TGI,BT-549 breast,> 100 µM
same,TGI,A549 NSCLC,> 100 µM
same,TGI,UO-31 renal,> 100 µM
same,TGI,NCI-H460 lung,> 100 µM
same,TGI,MOLT-4 leukemia,> 100 µM
same,TGI,SF-268 CNS,> 100 µM
same,TGI,SK-MEL-2 melanoma,> 100 µM
same,TGI,NCI-H226 lung,> 100 µM
same,TGI,SK-MEL-28 melanoma,> 100 µM
same,TGI,RXF 393 renal,> 100 µM
same,TGI,T-47D breast,> 100 µM
same,TGI,U251 CNS,> 100 µM
same,TGI,MCF7 breast,> 100 µM
same,TGI,CAKI-1 renal,> 100 µM
same,TGI,EKVX NSCLC,> 100 µM
same,TGI,OVCAR-4 ovarian,> 100 µM
same,TGI,HOP-62 NSCLC,> 100 µM
same,TGI,SR leukemia,> 100 µM
same,TGI,HS 578T breast,> 100 µM
same,TGI,HOP-92 NSCLC,> 100 µM
same,TGI,NCI-H522 lung,> 100 µM
same,TGI,TK-10 renal,> 100 µM
O=C1C(c2c(O)[nH]c3ccc([N+](=O)[O-])cc23)=Nc2ccccc21,TGI,SNB-75 CNS,34.2 µM
same,TGI,HT29 colon,> 100 µM
same,TGI,MDA-MB-231 breast,91.2 µM
same,TGI,M14 melanoma,> 100 µM
same,TGI,MDA-MB-435,> 100 µM
same,TGI,COLO 205 colon,> 100 µM
same,TGI,SN12C renal,> 100 µM
same,TGI,HCC-2998 colon,> 100 µM
same,TGI,CCRF-CEM leukemia,> 100 µM
same,TGI,UACC-62 melanoma,> 100 µM
same,TGI,HCT-15 colon,> 100 µM
same,TGI,DU-145 prostate,> 100 µM
same,TGI,SF-295 CNS,> 100 µM
same,TGI,SW-620 colon,> 100 µM
same,TGI,PC-3 prostate,> 100 µM
same,TGI,SNB-19 CNS,> 100 µM
same,TGI,NCI-H23 lung,> 100 µM
same,TGI,KM12 colon,> 100 µM
same,TGI,HCT-116 colon,> 100 µM
same,TGI,MALME-3M melanoma,> 100 µM
same,TGI,786-0 renal,> 100 µM
same,TGI,RPMI-8226 leukemia,> 100 µM
same,TGI,K-562 leukemia,> 100 µM
same,TGI,ACHN renal,> 100 µM
same,TGI,SK-MEL-5 melanoma,> 100 µM
same,TGI,MDA-N,> 100 µM
same,TGI,OVCAR-5 ovarian,> 100 µM
same,TGI,IGROV1 ovarian,> 100 µM
same,TGI,NCI/ADR-RES ovarian,> 100 µM
same,TGI,A498 renal,> 100 µM
same,TGI,UACC-257 melanoma,> 100 µM
same,TGI,OVCAR-8 ovarian,> 100 µM
same,TGI,LOX IMVI melanoma,> 100 µM
same,TGI,BT-549 breast,> 100 µM
same,TGI,A549 NSCLC,> 100 µM
same,TGI,UO-31 renal,> 100 µM
same,TGI,NCI-H460 lung,> 100 µM
same,TGI,SK-OV-3 ovarian,> 100 µM
same,TGI,OVCAR-3 ovarian,> 100 µM
same,TGI,MOLT-4 leukemia,> 100 µM
same,TGI,SF-268 CNS,> 100 µM
same,TGI,SK-MEL-2 melanoma,> 100 µM
same,TGI,NCI-H226 lung,> 100 µM
same,TGI,SK-MEL-28 melanoma,> 100 µM
same,TGI,RXF 393 renal,42.2 µM
same,TGI,T-47D breast,> 100 µM
same,TGI,U251 CNS,49.8 µM
same,TGI,MCF7 breast,> 100 µM
same,TGI,CAKI-1 renal,> 100 µM
same,TGI,EKVX NSCLC,> 100 µM
same,TGI,OVCAR-4 ovarian,> 100 µM
same,TGI,HOP-62 NSCLC,> 100 µM
same,TGI,SR leukemia,> 100 µM
same,TGI,HS 578T breast,> 100 µM
same,TGI,HOP-92 NSCLC,> 100 µM
same,TGI,NCI-H522 lung,> 100 µM
same,TGI,TK-10 renal,70.9 µM
Cc1ccc(O)c(-c2cc(-c3cccc(Br)c3)on2)c1,TGI,SNB-75 CNS,86.2 µM
same,TGI,HT29 colon,67.3 µM
same,TGI,MDA-MB-231 breast,> 100 µM
same,TGI,M14 melanoma,> 100 µM
same,TGI,MDA-MB-435,50 µM
same,TGI,COLO 205 colon,37.1 µM
same,TGI,SN12C renal,55.1 µM
same,TGI,SF-539 CNS,> 100 µM
same,TGI,HCC-2998 colon,53.2 µM
same,TGI,CCRF-CEM leukemia,> 100 µM
same,TGI,UACC-62 melanoma,78.1 µM
same,TGI,HCT-15 colon,> 100 µM
same,TGI,DU-145 prostate,> 100 µM
same,TGI,HL-60(TB) leukemia,81.9 µM
same,TGI,SF-295 CNS,> 100 µM
same,TGI,SW-620 colon,46.7 µM
same,TGI,PC-3 prostate,> 100 µM
same,TGI,SNB-19 CNS,> 100 µM
same,TGI,NCI-H23 lung,> 100 µM
same,TGI,KM12 colon,47.2 µM
same,TGI,HCT-116 colon,57.7 µM
same,TGI,MALME-3M melanoma,68.9 µM
same,TGI,786-0 renal,> 100 µM
same,TGI,RPMI-8226 leukemia,85.2 µM
same,TGI,K-562 leukemia,> 100 µM
same,TGI,ACHN renal,> 100 µM
same,TGI,SK-MEL-5 melanoma,41.6 µM
same,TGI,MDA-N,65.2 µM
same,TGI,OVCAR-5 ovarian,> 100 µM
same,TGI,IGROV1 ovarian,> 100 µM
same,TGI,NCI/ADR-RES ovarian,> 100 µM
same,TGI,A498 renal,> 100 µM
same,TGI,UACC-257 melanoma,> 100 µM
same,TGI,OVCAR-8 ovarian,67.3 µM
same,TGI,LOX IMVI melanoma,31.5 µM
same,TGI,BT-549 breast,77.5 µM
same,TGI,A549 NSCLC,> 100 µM
same,TGI,UO-31 renal,> 100 µM
same,TGI,NCI-H460 lung,> 100 µM
same,TGI,SK-OV-3 ovarian,68.6 µM
same,TGI,OVCAR-3 ovarian,51.7 µM
same,TGI,MOLT-4 leukemia,> 100 µM
same,TGI,SF-268 CNS,89.9 µM
same,TGI,SK-MEL-2 melanoma,56 µM
same,TGI,SK-MEL-28 melanoma,52.8 µM
same,TGI,RXF 393 renal,35.7 µM
same,TGI,T-47D breast,> 100 µM
same,TGI,U251 CNS,33.7 µM
same,TGI,MCF7 breast,32.5 µM
same,TGI,CAKI-1 renal,> 100 µM
same,TGI,EKVX NSCLC,> 100 µM
same,TGI,OVCAR-4 ovarian,34.6 µM
same,TGI,HOP-62 NSCLC,> 100 µM
same,TGI,SR leukemia,99.4 µM
same,TGI,HS 578T breast,> 100 µM
same,TGI,HOP-92 NSCLC,> 100 µM
same,TGI,TK-10 renal,43.2 µM
